According to patent US8188011B1, “Optimization of ligand affinity for RNA targets using mass spectrometry” (Isis Pharmaceuticals, Inc., priority 2000, dated 2012):
Values joined by “and” are separate entries in the source; they are usually repeats but may differ in a detail not shown here. Identical values can stand only once. “Also recorded” adds a separate entry of the source. Like-named read-outs stand apart in the source and are kept apart here. Marks after values point to notes of the source that are not given here.

Legend:
[1] = tested on: 16S ribosomal RNA fragment; experiment: Relative solution affinities of ligand:16S complexes; format: binding, bacterial; conditions: normalized to the solution affinity of 4-aminobenzamidine
[2] = tested on: 27 nucleotide fragment of bacterial 16S ribosomal RNA incorporating the A-site; experiment: ESI-FT-ICR MS detection of non-covalent ligand:16S RNA complexes (ion abundance relative to unbound RNA); format: binding; conditions: for affinity for 16S (order of magnitude): ESI-MS assay; for ion abundance of binary ligand:16S complex relative to unbound 16S RNA: 200 μM ligand, 5 μM target 16S RNA fragment
Method: In separate mixtures, 200 μM of three ligands IBIS-326611 ((2S)-2-amino-3-hydroxy-1-piperazinylpropan-1-one), IBIS-326645 (5-methyl-1-(2-oxo-2-piperazinylethyl)-1,3-dihydropyrimidine-2,4-dione) and a concatenated compound thereof, IBIS-271583 (1-{2-[(3R)-4-(2S)-2-amino-3-hydroxypropanoyl)-3-methylpiperazinyl]-2-oxoethyl}-5-methyl-1,3-dihydropyrimidine-2,4-dione) are each mixed with 5 μM of target 16S RNA fragment and analyzed by mass spectrometry. IBIS-326611 is shown in FIG. 5 to form a binary complex having an ion abundance 27.8% that of the unbound 16S RNA while IBIS-326645 in FIG. 6 forms a binary complex having an ion abundance 14.7% that of the unbound 16S RNA.
All MS experiments were performed by using an Apex II 70e ESI-FT-ICR MS (Bruker Daltonics, Billerica, Mass.) with an actively shielded 7 tesla superconducting magnet. RNA solutions were prepared in 50 mM NH4OAc (pH 7), mixed with 10% isopropanol to aid desolvation, and infused at a rate of 1.5 μL/min by using a syringe pump. Ions were formed in a modified electrospray source (Analytica, Branford, Conn.) by using an off-axis grounded electrospray probe positioned ca. 1.5 cm from the metallized terminus of the glass desolvation capillary biased at 5,000 V. A countercurrent flow of dry […] gas heated to 150° C. was used to assist in the desolvation process. Ions were accumulated in an external ion reservoir comprised of a radio frequency-only hexapole, a skimmer cone, and an auxiliary electrode for 1,000 ms before transfer into the trapped ion cell for mass analysis. Each spectrum was the result of the co-addition of 64 transients comprised of 524,288 data points acquired over a […] bandwidth, resulting in a 1.2-sec detection interval. All aspects of pulse sequence control, data acquisition, and postacquisition processing were performed by using a Bruker Daltonics data station running XMASS Version 4.0 on a Silicon Graphics (Mountain View, Calif.) R5000 computer.
RNA binding ligands are selected from a set of compounds using mass spectrometry. The RNA used for the target molecule is an RNA whose electrospray ionization properties have been optimized in conjunction with optimization of the electrospray ionization and desolvation conditions. […] A 50 μM stock solution of the RNA is purified, and dialyzed to remove sodium and potassium ions.
The compound set is pooled into mixtures of 8 members, each present at 1-10 mM in […]. A collection of these mixtures is diluted 1:50 into an aqueous solution containing 50-150 mM ammonium acetate buffer at pH 7.0, 1-5 μM RNA target, and 10-50% isopropanol, ethanol, or methanol to create the screening sample. The aqueous solution contains 100 μM each of 8 compounds, 50 mM ammonium acetate, 5 μM RNA target, and 25% isopropanol. These screening samples are arrayed in a 96-well microtiter plate, or added to individual vials for queuing into an automated robotic liquid hander under computer control by the mass spectrometer.
The source voltage potentials are adjusted to give stable electrospray ionization by monitoring the ion abundance of the free RNA. […] If available on the mass spectrometers, the partial gas pressure beyond the desolvation capillary is adjusted by throttling the pumping speed. This gas pressure may also be altered to optimize the ion abundance and observation of the ammonium ion adducts. After instrument performance has been optimized, the voltage potential between the capillary and skimmer lens is increased to reduce the abundance of the ion from the monoammonium-RNA complex to […] of the abundance of the ion from the RNA. These instrument parameters are used for detection of complexes between the RNA and compound set.
The compound set is screened for members that form non-covalent complexes with the RNA. […]

[3] = biological target: 16S ribosomal RNA fragment (27mer RNA, SEQ ID NO:1); experiment: ESI-MS titration of 2-DOS against 16S, polynomial fit for dissociation constants; format: binding, bacterial; conditions: 4th order polynomial fit, 100 mM ammonium acetate buffer
Method: 2′-O-ACE protected 27mer RNA ([…]; SEQ ID NO:1) was purchased from Dharmacon Research (Boulder, Colo.). Aqueous solutions were deprotected for 30 min at 60° C. in a 0.1M tetramethylenediamine acetate buffer at pH 3.5. […] All chemicals were purchased from Aldrich Chemicals (Milwaukee), except for 2-deoxystreptamine and 3,5-diamino-1-N-methyl-triazole, which were prepared according to Georgiadis et al (J. Carbohydr. Chem. 1991, 10, 739-748) and Kaiser et al (U.S. Pat. No. 2,648,670). Ligands were added to the indicated final concentrations from 20 mM aqueous solutions.
Identical sample preparations were used for experiments with FTICR mass spectrometer. […] Sample was introduced at 1.0 μL/min and the capillary interface unheated. Ions were stored for 1.25 sec in a hexapole ion guide prior to transfer to the trapped ion cell. The indicated gas pressure over the vacuum pump situated below the hexapole ion guide was ˜8×10^−6 mbar. The parallel measurements of relative activation energy were performed with the FTICR mass spectrometer by varying the potential difference between the capillary exit and the first skimmer lens element. Typically, 32 1.2 sec transients of 512 k data points were summed prior to Fourier transformation and display.
2-deoxystreptamine (2-DOS) bound to 16S at multiple locations as a function of increasing concentration. At 0.33 mM, one 2-DOS bound 16S, generating an [M-5H^+]^5− complex observed at m/z 1758.9. Complexes corresponding to three and four 2-DOS molecules bound concurrently to 16S appeared at concentrations above 3.3 mM. Knowledge of the binding stoichiometry lead to the use of a fourth-order polynomial for calculation of the respective dissociation constants (KD) (Greig et al., J. Am. Chem. Soc. 1995, 117, 10765-10766).

[4] = tested on: 27-mer fragment of ribosomal RNA comprising the 16S A-site; experiment: Mode of binding of ligand pairs by ESI-MS (presence or absence of ternary complex); parameters: species or system bacterial; conditions: for binding interaction of ligand pair 2-DOS / 3,5-DT on 16S RNA: 5 μM 16S, 100 μM 2-DOS, 0.5 mM 3,5-DT; for binding interaction of ligand pair 2-DOS / 2,4-diaminopyrimidine on 16S RNA: no ternary complex signal; for binding interaction of ligand pair Ibis-326732 / glucosamine on 16S RNA: 70 μM Ibis-326732, 100 μM glucosamine, 5 μM 16S RNA
Excerpt: Ligands bind competitively for a target when the binding of one ligand prevents the binding of the other ligand is the result of the ligands binding to the target at the same location. In this situation, the mixture contains an equilibrium of two binary complexes, one of which being one ligand bound to the target and the other being the other ligand bound to the target. The ligand having the greater affinity for the target will predominate and thus have higher signal intensity for its binary complex with the target compared to the other ligand. Competitive binding interaction between two ligands is determined according to methods of the invention by analyzing the mixture by mass-spectrometry to detect the presence or lack of signal corresponding to a ternary complex where both ligands are bound to the target at the same time. The lack of signal for a ternary complex indicates a competitive binding interaction between the two ligands while the presence of the signal indicates a non-competitive interaction.
Accordingly, in an aspect of the present invention, there is provided a method for determining the relative interaction between at least two ligands with respect to a target substrate. In practicing this method an amount of each of the ligands is mixed with an amount of the target substrate to form a mixture. This mixture is analyzed by mass spectrometry to determine the presence or absence of a ternary complex corresponding to the simultaneous adduction of two of the ligands with the target substrate.
Ligands bind concurrently when the binding of one ligand to the target is unaffected by the binding of the other and is a consequence of the ligands binding to the target at distinct sites. […] The ligand having the greater affinity for the target will have higher signal intensity for its binary complex with the target compared to the other ligand. […] Particularly, the absolute ion abundance of the ternary complex (TL1L2) is compared to the relative ion abundance of the binary complexes (TL1 and TL2) which contribute to the formation of the ternary complex with respect to the unbound target (TL1×TL2/T). Since there are two binary complexes contributing the formation of the ternary complex, the comparison is with the sum of the two contributing binary complexes i.e. TL1×TL2/T+TL2×TL1/T. If the absolute ion abundance of the ternary complex is equal to the sum of the relative ion abundance of the contributing binary complexes, then the two ligands concurrently bind to the target substrate. Expressed another way, a pair of ligands are concurrent binders for a target if in either of the following equivalent formulae the value of y is equal to zero: […]
In the compound collection used in Example 1, those compounds that formed complexes with the RNA target are pooled into groups of 4-10 and screened again as a mixture against the RNA target as outlined in Example 1. Since all of the compounds have been shown previously to bind to the RNA, three possible changes in the relative ion abundance are observed in the mass spectrometry assay. If two compounds bind at the same site, the ion abundance of the RNA complex for the weaker binder will be decreased through competition for RNA binding with the higher affinity binder (competitive binding). An example is presented in FIG. 3, where the ion abundance from a glucosamine-RNA complex is reduced as glucosamine is displaced from the RNA by addition of a benzimidazole compound. If two compounds can bind at distinct sites, signals will be observed from the respective binary complexes with the RNA and from the ternary complex where both compounds bind to the RNA simultaneously (concurrent binders). […] The relative ion abundance from the […] for 3,5-DT to the free RNA is measured, as is the relative ion abundance from the ternary complex between 3,5-DT, 2-DOS, and RNA and the binary complex. […]

N=C(N)c1ccc(N)cc1 [ABA, 4-aminobenzamidine]
Relative Soln. Affinity [1]: 1.00^b

NC(=O)c1[nH]cnc1N [AICA, 4-aminoimidazole-5-carboxamide]
Relative Soln. Affinity [1]: .26 + 0.04

N[C@@H]1C[C@H](N)[C@@H](O)C(O)[C@H]1O (stereo partly drawn) [2-DOS, 2-deoxystreptamine]
affinity for 16S RNA compared with another ligand (ion abundance of binary complexes) [2]: greater binding affinity for the target RNA than DT
Kd ([3]; read-out: KD of 2-DOS:16S complex (first 2-DOS)): 610 µM and 600 µM
Kd ([3]; read-out: KD of (2-DOS)2:16S complex (second 2-DOS)): 1400 ± 100 µM
Kd ([3]; read-out: KD of (2-DOS)3:16S complex (third 2-DOS)): 4000 ± 1000 µM
binding interaction of ligand pair 2-DOS / 3,5-DT on 16S RNA [4]: concurrent binding interaction; also recorded: cooperative binding
binding interaction of ligand pair 2-DOS / 2,4-diaminopyrimidine on 16S RNA [4]: preferred sites overlap and 2-DOS displaces DAP for binding

Nc1ccnc(N)n1 [DAP, 2,4-diaminopyrimidine]
affinity for 16S (order of magnitude) [2]: ˜mM affinities
Relative Soln. Affinity [1]: .17 + 0.04
binding interaction of ligand pair 2-DOS / 2,4-diaminopyrimidine on 16S RNA [4]: preferred sites overlap and 2-DOS displaces DAP for binding

NN1CN(SCc2ccccc2)C=N1 [2-amino-4-benzylthio-1,2,4-triazole]
complex with RNA target observed by ESI-MS [2]: seen

Nc1n[nH]c(N)n1 [3,5-DT, 3,5-diamino-1,2,4-triazole]
affinity for 16S (order of magnitude) [2]: ˜mM affinities
binding interaction of ligand pair 2-DOS / 3,5-DT on 16S RNA [4]: cooperative binding; also recorded: concurrent binding
binding interaction of ligand pair 2-DOS / 3,5-DT on 16S RNA ([4]; listed as DT): concurrent binding interaction

N=C(N)Nc1nc2ccccc2[nH]1 [GBI, 2-guanidylbenzimidazole]
Relative Soln. Affinity [1]: .99 + 0.02

Cn1nc(N)nc1N [3,5-diamino-1-N-methyltriazole]
complex with RNA target observed by ESI-MS [2]: not observed

1-{2-[(3R)-4-(2S)-2-amino-3-hydroxypropanoyl)-3-methylpiperazinyl]-2-oxoethyl}-5-methyl-1,3-dihydropyrimidine-2,4-dione [IBIS-271583]
affinity for 16S RNA compared with another ligand (ion abundance of binary complexes) [2]: greater affinity for 16S than either parent compound
ion abundance of binary ligand:16S complex relative to unbound 16S RNA [2]: 14.7%
ion abundance of binary ligand:16S complex relative to unbound 16S RNA ([2]; listed as IBIS-271483): 52.4%
affinity for 16S RNA compared with another ligand (ion abundance of binary complexes) ([2]; listed as IBIS-271483): greater affinity for the target 16S RNA than either of the parent compounds

Nc1cccc2nc(C3CCNCC3)[nH]c12 [Ibis-326732, 4-amino-2-piperidin-4-ylbenzimidazole]
affinity for 16S RNA compared with another ligand (ion abundance of binary complexes) [2]: greater affinity than glucosamine
binding interaction of ligand pair Ibis-326732 / glucosamine on 16S RNA [4]: competitive binders

N[C@H]1C(O)O[C@H](CO)[C@@H](O)[C@@H]1O (stereo partly drawn) [GA, glucosamine]
Relative Soln. Affinity [1]: lower than GBI
Relative Soln. Affinity ([1]; listed as Glucosamine): .86 + 0.03
binding interaction of ligand pair Ibis-326732 / glucosamine on 16S RNA [4]: competitive binders

N[C@@H](CO)C(=O)N1CCNCC1 [IBIS-326611, (2S)-2-amino-3-hydroxy-1-piperazinylpropan-1-one]
ion abundance of binary ligand:16S complex relative to unbound 16S RNA [2]: 27.8%
